These results are taken from paper PMC10614203, “Synthesis, Structure–Activity Relationships, Radiofluorination, and Biological Evaluation of [^18F]RM365, a Novel Radioligand for Imaging the Human Cannabinoid Receptor Type 2 (CB2R) in the Brain with PET” (Journal of Medicinal Chemistry, 2023).

A word on the Kd: it is a measure of binding affinity in units of concentration. In general, IC50 refers to the midpoint of a concentration-inhibition curve. Read a high IC50 as weaker potency.

Values joined by “and” are separate entries in the source; they are usually repeats but may differ in a detail not shown here. Identical values can stand only once.

The target in test [1] is T1, rat CB2R (Rattus norvegicus, UniProt Q9QZN9).
T1 construct: one spleen from a female SPRD rat expressing high levels of the receptor in the leukocytes; from tissue; host or cells: rat spleen (female SPRD rat; autoradiography also described with male F433 rats)
T1 sequence (Q9QZN9 1-360): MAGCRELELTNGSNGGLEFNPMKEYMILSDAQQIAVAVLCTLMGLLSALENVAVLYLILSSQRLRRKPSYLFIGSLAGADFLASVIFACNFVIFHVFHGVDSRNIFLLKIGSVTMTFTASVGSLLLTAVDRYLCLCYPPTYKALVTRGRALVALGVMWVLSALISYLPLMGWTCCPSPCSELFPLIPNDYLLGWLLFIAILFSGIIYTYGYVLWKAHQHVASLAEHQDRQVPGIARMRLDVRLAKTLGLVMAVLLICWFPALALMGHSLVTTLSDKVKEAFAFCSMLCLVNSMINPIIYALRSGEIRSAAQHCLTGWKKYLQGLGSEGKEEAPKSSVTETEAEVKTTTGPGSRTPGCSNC
The experiment in a line: In vitro autoradiography on rat spleen cryosections. Format: binding. As to conditions: Figure S2. The text has this: (§1) To complement the indirect determination of the affinity of RM365 toward the CB2R in vitro, we performed a direct binding study with the radiofluorinated ligand using preparations of CHO cells stably transfected with the cloned human receptor and one spleen from a female SPRD rat expressing high levels of the receptor in the leukocytes.[12] The results of the homologous competition study shown in Figure 6 confirm the good affinity of [^18F]RM365 toward the human CB2R with a KD value of about 2 nM. […] Furthermore, the measurement signal obtained from the incubation of [^18F]RM365 with the homogenate of rat spleen was in the range of the values obtained for the nonspecific binding of the radioligand toward the preparation of CB2R-transfected CHO cells. We conclude that RM365 binds the rat CB2R with lower affinity than the human CB2R but expect no significant interactions of the radioligand with nonspecific binding sites.[82] Because of the available rat model to assess the potential of [^18F]RM365 to cross the blood–brain barrier and to specifically label human CB2R—the hCB2R(D80N) model with high expression of human CB2R in the brain[31],[32],[66],[83]—we intended to confirm the initial findings from the rat homogenate by an autoradiographic study.
The in vitro autoradiographic experiments were performed according to a previously published protocol.[88] […]

The target in test [2] is T1, rat CB2R. The experiment in a line: Homologous competition binding of [18F]RM365 / RM365 on rat spleen homogenate.
Excerpt: as §1, with “Because of the available rat model to assess the potential of [^18F]RM365 to cross the blood–brain barrier and to specifically label human CB2R—the hCB2R(D80N) model with high expression of human CB2R in the brain[31],[32],[66],[83]—we intended to confirm the initial findings from the rat homogenate by an autoradiographic study.” left out
(§2) The nonspecific binding of the respective radioligand was determined by coincubation with CP55,940 (final concentration 10^–5 M). The normalized values of bound activity (% specific binding) were calculated and plotted vs the logarithm of the concentration of the respective test compound. […]

A further test deals with T2, hCB2R (Homo sapiens, UniProt P34972).
T2 construct: host or cells: CHO cells, stably transfected
T2 sequence (P34972 whole entry): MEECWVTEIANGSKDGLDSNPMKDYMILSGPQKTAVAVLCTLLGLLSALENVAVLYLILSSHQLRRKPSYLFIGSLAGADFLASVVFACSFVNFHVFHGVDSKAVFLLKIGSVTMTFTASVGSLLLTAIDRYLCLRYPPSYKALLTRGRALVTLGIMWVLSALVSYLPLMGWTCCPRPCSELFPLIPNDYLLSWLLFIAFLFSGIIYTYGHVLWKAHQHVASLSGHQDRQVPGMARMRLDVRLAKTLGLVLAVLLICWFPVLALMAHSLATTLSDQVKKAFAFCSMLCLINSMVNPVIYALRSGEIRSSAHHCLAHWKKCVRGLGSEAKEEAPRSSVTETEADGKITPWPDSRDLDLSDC
The experiment in a line: Homologous competition binding of [18F]RM365 / RM365 on membranes of hCB2R-CHO cells.
Excerpt: as §1, with “Because of the available rat model to assess the potential of [^18F]RM365 to cross the blood–brain barrier and to specifically label human CB2R—the hCB2R(D80N) model with high expression of human CB2R in the brain[31],[32],[66],[83]—we intended to confirm the initial findings from the rat homogenate by an autoradiographic study.” left out
as §2

In the case of `CC1(C)Cc2ccc(C#N)cc2[C@@H]1NC(=O)c1cc2cc([18F])ccc2[nH]1` [[^18F]RM365], the “specific interaction with rat CB2R in spleen cryosections, in words” value on rat CB2R [1] was “absence of a specific interaction”. Moreover, the Kd at rat CB2R [2] (rat spleen homogenate, read-out: KD for the rCB2R) was more than 10000 nM; on hCB2R (0.078 nM [18F]RM365, single experiment in triplicate, KD = IC50 - concentration radioligand), 2.32 nM and ~2 nM. Also, the “specific binding to rat spleen homogenates, in words” value at rat CB2R [2] (spleen of a female SPRD rat) is listed as “no detectable interaction”. In addition, the IC50 at hCB2R (0.078 nM [18F]RM365, increasing concentrations of RM365) is 2.4 nM.
